Literature values, collected in patent publication US7251609B1, “Method for conducting clinical trials over the internet” (The Trustees of Boston University, priority 1999, dated 2007).

System: patients with knee OA

Q: With `Cl.N[C@H]1C(O)O[C@H](CO)[C@@H](O)[C@@H]1O` (stereo partly drawn) [glucosamine hydrochloride] as the molecule, how does the major adverse events (94 patients with knee OA) read?
A: The major adverse events was “No major adverse events”.

Q: And the “rate of minor adverse symptoms” value (94 patients with knee OA, identical rate in glucosamine and placebo groups)?
A: The value was 12%.

Q: And the efficacy (study of Houpt et al, knee OA)?
A: Its efficacy is “only modest efficacy”.
